Experimental data: ChEMBL document CHEMBL3745709, “Synthesis of novel ethyl 1-ethyl-6-fluoro-7-(fatty amido)-1,4-dihydro-4-oxoquinoline-3-carboxylate derivatives and their biological evaluation” (Bioorg Med Chem Lett, 2016)
In brackets after ≈: the same amount, converted by molar mass.

Experiments:
SK-OV-3 = test: Selectivity index, ratio of IC50 for human IMR90 cells to IC50 for human SKOV3 cells; assay type: functional
Candida albicans [1] = test: Antifungal activity against Candida albicans MTCC 3958 assessed as inhibition zone after 24 hrs at 30 degC by well diffusion method; assay type: functional; conditions: MTCC 3958, 24 h
Candida parapsilosis [2] = test: Antifungal activity against Candida parapsilosis MTCC 1744 assessed as inhibition zone after 24 hrs at 30 degC by well diffusion method; assay type: functional; conditions: Lodderomyces parapsilosis, MTCC 1744, 24 h
[3] = Cytotoxicity against human SKOV3 cells assessed as reduction in cell viability by MTT assay; assay type: functional, cell-based; conditions: SK-OV-3
Candida albicans [4] = test: Antifungal activity against Candida albicans MTCC 227 assessed as inhibition zone after 24 hrs at 30 degC by well diffusion method; assay type: functional; conditions: MTCC 227, 24 h
Pichia kudriavzevii [5] = test: Fungicidal activity against Candida krusei MTCC 3020 assessed as microbial killing after 24 hrs; assay type: functional; conditions: MTCC 3020, 24 h
Candida albicans [6] = test: Fungicidal activity against Candida albicans MTCC 227 assessed as microbial killing after 24 hrs; assay type: functional; conditions: MTCC 227, 24 h
Candida albicans [7] = test: Antifungal activity against Candida albicans MTCC 3017 […] after 24 hrs at 30 degC by well diffusion method; assay type: functional; conditions: MTCC 3017, 24 h
MCF7 = test: Cytotoxicity against human MCF7 cells assessed as reduction in cell viability by MTT assay; assay type: functional, cell-based
Bacillus subtilis [8] = test: Bactericidal activity against Bacillus subtilis MTCC 121 assessed as microbial killing after 24 hrs; assay type: functional; conditions: MTCC 121, 24 h
Candida albicans [9] = test: Antifungal activity against Candida albicans MTCC 3018 assessed as inhibition zone after 24 hrs at 30 degC by well diffusion method; assay type: functional; conditions: MTCC 3018, 24 h
Staphylococcus aureus [10] = test: Bactericidal activity against Staphylococcus aureus MLS-16 MTCC 2940 assessed as microbial killing after 24 hrs; assay type: functional; conditions: MLS-16 MTCC 2940, 24 h
Candida albicans [11] = test: Fungicidal activity against Candida albicans MTCC 4748 assessed as microbial killing after 24 hrs; assay type: functional; conditions: MTCC 4748, 24 h
A549 [12] = test: Selectivity index, ratio of IC50 for human IMR90 cells to IC50 for human A549 cells; assay type: functional
[13] = Cytotoxicity against human IMR90 cells assessed as reduction in cell viability by MTT assay; assay type: cell-based; conditions: IMR-90
A549 [14] = test: Cytotoxicity against human A549 cells assessed as reduction in cell viability by MTT assay; assay type: functional, cell-based
Pichia sporocuriosa [15] = test: Fungicidal activity against Issatchenkia hanoiensis MTCC 4755 assessed as microbial killing after 24 hrs; assay type: functional; conditions: MTCC 4755, 24 h
Candida albicans [16] = test: Fungicidal activity against Candida albicans MTCC 1637 assessed as microbial killing after 24 hrs; assay type: functional; conditions: MTCC 1637, 24 h
IMR-90 [17] = test: Selectivity index, ratio of IC50 for human IMR90 cells to IC50 for human DU145 cells; assay type: functional
Candida albicans [18] = test: Fungicidal activity against Candida albicans MTCC 3958 assessed as microbial killing after 24 hrs; assay type: functional; conditions: MTCC 3958, 24 h
Candida albicans [19] = test: Fungicidal activity against Candida albicans MTCC 183 assessed as microbial killing after 24 hrs; assay type: functional; conditions: MTCC 183, 24 h
Pichia kudriavzevii [20] = test: Antifungal activity against Candida krusei MTCC 3020 assessed as inhibition zone after 24 hrs at 30 degC by well diffusion method; assay type: functional; conditions: MTCC 3020, 24 h
Candida albicans [21] = test: Antifungal activity against Candida albicans MTCC 7315 assessed as inhibition zone after 24 hrs at 30 degC by well diffusion method; assay type: functional; conditions: MTCC 7315, 24 h
Candida albicans [22] = test: Antifungal activity against Candida albicans MTCC 1637 assessed as inhibition zone after 24 hrs at 30 degC by well diffusion method; assay type: functional; conditions: MTCC 1637, 24 h
Escherichia coli [23] = test: Antibiofilm activity against Escherichia coli MTCC 739 after 24 hrs by crystal violet staining method; assay type: functional, organism-based; conditions: MTCC 739, 24 h
[Candida] aaseri [24] = Fungicidal activity against Candida aaseri MTCC 1962 assessed as microbial killing after 24 hrs; assay type: functional; conditions: Yamadazyma aaseri, MTCC 1962, 24 h
Nakaseomyces glabratus [25] = test: Fungicidal activity against Candida glabrata MTCC 3019 assessed as microbial killing after 24 hrs; assay type: functional; conditions: MTCC 3019, 24 h
Candida albicans [26] = test: Fungicidal activity against Candida albicans MTCC 7315 assessed as microbial killing after 24 hrs; assay type: functional; conditions: MTCC 7315, 24 h
IMR-90 [27] = test: Selectivity index, ratio of IC50 for human IMR90 cells to IC50 for human MCF7 cells; assay type: functional
Candida albicans [28] = test: Antifungal activity against Candida albicans MTCC 854 assessed as inhibition zone after 24 hrs at 30 degC by well diffusion method; assay type: functional; conditions: MTCC 854, 24 h
[29] = Cytotoxicity against human DU145 cells assessed as reduction in cell viability by MTT assay; assay type: functional, cell-based; conditions: DU-145
Bacillus subtilis [30] = test: Antibiofilm activity against Bacillus subtilis MTCC 121 after 24 hrs by crystal violet staining method; assay type: functional, organism-based; conditions: MTCC 121, 24 h
[31] = Antioxidant activity assessed as DPPH free radical scavenging activity; assay type: physicochemical
Pichia sporocuriosa [32] = test: Antifungal activity against Issatchenkia hanoiensis MTCC 4755 assessed as inhibition zone after 24 hrs at 30 degC by well diffusion method; assay type: functional; conditions: MTCC 4755, 24 h
Candida albicans [33] = test: Antifungal activity against Candida albicans MTCC 183 assessed as inhibition zone after 24 hrs at 30 degC by well diffusion method; assay type: functional; conditions: MTCC 183, 24 h
Escherichia coli [34] = test: Bactericidal activity against Escherichia coli MTCC 739 assessed as microbial killing after 24 hrs; assay type: functional; conditions: MTCC 739, 24 h
Raoultella planticola = test: Antibacterial activity against Klebsiella planticola MTCC 530 assessed as inhibition zone after 24 hrs at 30 degC by well diffusion method; assay type: functional; conditions: MTCC 530, 24 h
Staphylococcus aureus [35] = test: Antibacterial activity against Staphylococcus aureus MLS-16 MTCC 2940 assessed as inhibition zone after 24 hrs at 30 degC by well diffusion method; assay type: functional; conditions: MLS-16 MTCC 2940, 24 h
Staphylococcus aureus [36] = test: Antibiofilm activity against Staphylococcus aureus MTCC 96 after 24 hrs by crystal violet staining method; assay type: functional, organism-based; conditions: MTCC 96, 24 h
Candida albicans [37] = test: Fungicidal activity against Candida albicans MTCC 3018 assessed as microbial killing after 24 hrs; assay type: functional; conditions: MTCC 3018, 24 h
Candida parapsilosis [38] = test: Fungicidal activity against Candida parapsilosis MTCC 1744 assessed as microbial killing after 24 hrs; assay type: functional; conditions: Lodderomyces parapsilosis, MTCC 1744, 24 h
Escherichia coli [39] = test: Antibacterial activity against Escherichia coli MTCC 739 assessed as inhibition zone after 24 hrs at 30 degC by well diffusion method; assay type: functional; conditions: MTCC 739, 24 h
Pseudomonas aeruginosa = test: Antibacterial activity against Pseudomonas aeruginosa MTCC 2453 assessed as inhibition zone after 24 hrs at 30 degC by well diffusion method; assay type: functional; conditions: MTCC 2453, 24 h
Micrococcus luteus = test: Antibacterial activity against Micrococcus luteus MTCC 2470 assessed as inhibition zone after 24 hrs at 30 degC by well diffusion method; assay type: functional; conditions: MTCC 2470, 24 h
Bacillus subtilis [40] = test: Antibacterial activity against Bacillus subtilis MTCC 121 assessed as inhibition zone after 24 hrs at 30 degC by well diffusion method; assay type: functional; conditions: MTCC 121, 24 h
Staphylococcus aureus [41] = test: Antibacterial activity against Staphylococcus aureus MTCC 96 […] after 24 hrs at 30 degC by well diffusion method; assay type: functional; conditions: MTCC 96, 24 h
Candida albicans [42] = test: Antifungal activity against Candida albicans MTCC 4748 assessed as inhibition zone after 24 hrs at 30 degC by well diffusion method; assay type: functional; conditions: MTCC 4748, 24 h
Staphylococcus aureus [43] = test: Antibiofilm activity against Staphylococcus aureus MLS-16 MTCC 2940 after 24 hrs by crystal violet staining method; assay type: functional, organism-based; conditions: MLS-16 MTCC 2940, 24 h
Nakaseomyces glabratus [44] = test: Antifungal activity against Candida glabrata MTCC 3019 assessed as inhibition zone after 24 hrs at 30 degC by well diffusion method; assay type: functional; conditions: MTCC 3019, 24 h
Candida albicans [45] = test: Fungicidal activity against Candida albicans MTCC 3017 assessed as microbial killing after 24 hrs; assay type: functional; conditions: MTCC 3017, 24 h
Staphylococcus aureus [46] = test: Bactericidal activity against Staphylococcus aureus MTCC 96 assessed as microbial killing after 24 hrs; assay type: functional; conditions: MTCC 96, 24 h
[Candida] aaseri [47] = Antifungal activity against Candida aaseri MTCC 1962 assessed as inhibition zone after 24 hrs at 30 degC by well diffusion method; assay type: functional; conditions: Yamadazyma aaseri, MTCC 1962, 24 h
Candida albicans [48] = test: Fungicidal activity against Candida albicans MTCC 854 assessed as microbial killing after 24 hrs; assay type: functional; conditions: MTCC 854, 24 h

CCCCCC(=O)Nc1cc2c(cc1F)c(=O)c(C(=O)OCC)cn2CC
Ratio IC50 (SK-OV-3): 10.2
MIC (Candida albicans [1]): 31.2 µg/mL (≈ 82.9 µM)
MIC (Candida parapsilosis [2]): 31.2 µg/mL (≈ 82.9 µM)
IC50 [3]: 8.6 µM
MIC (Candida albicans [4]): 62.5 µg/mL (≈ 166 µM)
MFC (Pichia kudriavzevii [5]): 62.5 µg/mL (≈ 166 µM)
MFC (Candida albicans [6]): 125 µg/mL (≈ 332 µM)
MIC (Candida albicans [7]): 31.2 µg/mL (≈ 82.9 µM)
IC50 (MCF7): 9.8 µM
MBC (Bacillus subtilis [8]): 7.8 µg/mL (≈ 20.7 µM)
MIC (Candida albicans [9]): 62.5 µg/mL (≈ 166 µM)
MBC (Staphylococcus aureus [10]): 31.2 µg/mL (≈ 82.9 µM)
MFC (Candida albicans [11]): 62.6 µg/mL (≈ 166 µM)
Ratio IC50 (A549 [12]): 9.9
IC50 [13]: 88.2 µM
IC50 (A549 [14]): 8.9 µM
MFC (Pichia sporocuriosa [15]): 62.5 µg/mL (≈ 166 µM)
MFC (Candida albicans [16]): 62.5 µg/mL (≈ 166 µM)
Ratio IC50 (IMR-90 [17]): 9
MFC (Candida albicans [18]): 62.5 µg/mL (≈ 166 µM)
MFC (Candida albicans [19]): 31.2 µg/mL (≈ 82.9 µM)
MIC (Pichia kudriavzevii [20]): 62.5 µg/mL (≈ 166 µM)
MIC (Candida albicans [21]): 31.2 µg/mL (≈ 82.9 µM)
MIC (Candida albicans [22]): 31.2 µg/mL (≈ 82.9 µM)
IC50 (Escherichia coli [23]): 8.7 µg/mL (≈ 23.1 µM)
MFC ([Candida] aaseri [24]): 62.5 µg/mL (≈ 166 µM)
MFC (Nakaseomyces glabratus [25]): 31.2 µg/mL (≈ 82.9 µM)
MFC (Candida albicans [26]): 31.2 µg/mL (≈ 82.9 µM)
Ratio IC50 (IMR-90 [27]): 9
MIC (Candida albicans [28]): 31.2 µg/mL (≈ 82.9 µM)
IC50 [29]: 9.8 µM
IC50 (Bacillus subtilis [30]): 4.6 µg/mL (≈ 12.2 µM)
EC50 [31]: 33.8 µg/mL (≈ 89.8 µM)
MIC (Pichia sporocuriosa [32]): 31.2 µg/mL (≈ 82.9 µM)
MIC (Candida albicans [33]): 15.6 µg/mL (≈ 41.4 µM)
MBC (Escherichia coli [34]): 31.2 µg/mL (≈ 82.9 µM)
MIC (Raoultella planticola): > 125 µg/mL
MIC (Staphylococcus aureus [35]): 15.6 µg/mL (≈ 41.4 µM)
IC50 (Staphylococcus aureus [36]): 2.1 µg/mL (≈ 5.58 µM)
MFC (Candida albicans [37]): 62.5 µg/mL (≈ 166 µM)
MFC (Candida parapsilosis [38]): 62.5 µg/mL (≈ 166 µM)
MIC (Escherichia coli [39]): 15.6 µg/mL (≈ 41.4 µM)
MIC (Pseudomonas aeruginosa): > 125 µg/mL
MIC (Micrococcus luteus): > 125 µg/mL
MIC (Bacillus subtilis [40]): 7.8 µg/mL (≈ 20.7 µM)
MIC (Staphylococcus aureus [41]): 3.9 µg/mL (≈ 10.4 µM)
MIC (Candida albicans [42]): 31.2 µg/mL (≈ 82.9 µM)
IC50 (Staphylococcus aureus [43]): 9.8 µg/mL (≈ 26 µM)
MIC (Nakaseomyces glabratus [44]): 31.2 µg/mL (≈ 82.9 µM)
MFC (Candida albicans [45]): 62.5 µg/mL (≈ 166 µM)
MBC (Staphylococcus aureus [46]): 7.8 µg/mL (≈ 20.7 µM)
MIC ([Candida] aaseri [47]): 31.2 µg/mL (≈ 82.9 µM)
MFC (Candida albicans [48]): 62.5 µg/mL (≈ 166 µM)
